Laboratory results: ChEMBL document CHEMBL1128933, “Structural comparison of alkylpolyamine analogues with potent in vitro antitumor or antiparasitic activity” (Bioorg Med Chem Lett, 1996)

What was measured:
Trypanosoma brucei [1] = test: Compound was evaluated for growth brucei K243 As-10-3 strain.; type: functional, organism-based
Trypanosoma brucei [2] = test: Compound was evaluated for growth brucei K243 strain.; type: functional, organism-based
Trypanosoma brucei [3] = test: Compound was evaluated for growth brucei K269 strain.; type: functional, organism-based
Trypanosoma brucei [4] = test: Compound was evaluated for growth brucei LAB 110 strain.; type: functional, organism-based
NCI-H157 = test: Compound was evaluated for inhibitory activity against H157 non-small cell lung carcinoma.; type: functional, cell-based; settings: Homo sapiens
NCH82 = test: Compound was evaluated for inhibitory activity against H82 small cell lung carcinoma.; type: functional, cell-based; settings: Homo sapiens

| Compound | IC50 (Trypanosoma brucei [1]) [µM] | IC50 (Trypanosoma brucei [2]) [µM] | IC50 (Trypanosoma brucei [3]) [µM] | IC50 (Trypanosoma brucei [4]) [µM] | IC50 (NCI-H157) [µM] | IC50 (NCH82) [µM] |
| --- | --- | --- | --- | --- | --- | --- |
| C#CCNCCCNCCCNCCCNCC | > 100 | > 100 | > 100 | > 100 | 0.7 | 5.2 |
| CCNCCCNCCCNCCCNCC1CCCCCC1 | > 100 | > 100 | > 100 | > 100 | 0.5 | 1.7 |
| C(CCCNCCCNCC1CCCCCC1)CCCNCCCNCC1CCCCCC1 | 0.78 | 0.98 | 0.69 | 0.125 | 2.1 | 1.5 |
| CCNCCCNCCCCCCCNCCCNCC1CCCCCC1 | 26.2 | 18.4 | 21 | 18 | > 10 | 9 |
| c1ccc(CNCCCNCCCCCCCNCCCNCc2ccccc2)cc1 | 13 | 15.1 | 12.3 | 14.5 |  |  |
| CCNCCCNCCCNCCCNCC1CC1 | > 100 | > 100 | > 100 | > 100 | 0.4 | 0.7 |
| CCNCCCNCCCCNCCCNCC [BIS(ETHYL)SPERMINE] |  |  |  |  | 2.9 |  |
